Reference: ChEMBL document CHEMBL4004849, “Tetrazolylmethyl quinolines: Design, docking studies, synthesis, anticancer and antifungal analyses” (2017)
Converted amounts (≈) assume the structure as drawn. The source made the active and inactive calls. The calls are words filed in the database; no cut-off is given here.

Assays:
Type in all cases: functional
K562 = assay: Growth inhibition of human K562 cells at 10^-5 M incubated for 48 hrs by sulforhodamine B assay relative to control
MOLT-4 = assay: Growth inhibition of human MOLT4 cells at 10^-5 M incubated for 48 hrs by sulforhodamine B assay relative to control
SR = assay: Growth inhibition of human SR cells at 10^-5 M incubated for 48 hrs by sulforhodamine B assay relative to control
A549 = assay: Growth inhibition of human A549/ATCC cells at 10^-5 M incubated for 48 hrs by sulforhodamine B assay relative to control
NCI-H226 = assay: Growth inhibition of human NCI-H226 cells at 10^-5 M incubated for 48 hrs by sulforhodamine B assay relative to control
NCI-H23 = assay: Growth inhibition of human NCI-H23 cells at 10^-5 M incubated for 48 hrs by sulforhodamine B assay relative to control
NCI-H460 = assay: Growth inhibition of human NCI-H460 cells at 10^-5 M incubated for 48 hrs by sulforhodamine B assay relative to control
NCI-H522 = assay: Growth inhibition of human NCI-H522 cells at 10^-5 M incubated for 48 hrs by sulforhodamine B assay relative to control
COLO 205 = assay: Growth inhibition of human COLO205 cells at 10^-5 M incubated for 48 hrs by sulforhodamine B assay relative to control
HCC 2998 = assay: Growth inhibition of human HCC2998 cells at 10^-5 M incubated for 48 hrs by sulforhodamine B assay relative to control
HCT-116 = assay: Growth inhibition of human HCT116 cells at 10^-5 M incubated for 48 hrs by sulforhodamine B assay relative to control
HT-29 = assay: Growth inhibition of human HT-29 cells at 10^-5 M incubated for 48 hrs by sulforhodamine B assay relative to control
KM12 = assay: Growth inhibition of human KM12 cells at 10^-5 M incubated for 48 hrs by sulforhodamine B assay relative to control
SW-620 = assay: Growth inhibition of human SW620 cells at 10^-5 M incubated for 48 hrs by sulforhodamine B assay relative to control
SF-268 = assay: Growth inhibition of human SF268 cells at 10^-5 M incubated for 48 hrs by sulforhodamine B assay relative to control
SF-295 = assay: Growth inhibition of human SF295 cells at 10^-5 M incubated for 48 hrs by sulforhodamine B assay relative to control
SF-539 = assay: Growth inhibition of human SF539 cells at 10^-5 M incubated for 48 hrs by sulforhodamine B assay relative to control
SNB-19 = assay: Growth inhibition of human SNB19 cells at 10^-5 M incubated for 48 hrs by sulforhodamine B assay relative to control
U-251 = assay: Growth inhibition of human U251 cells at 10^-5 M incubated for 48 hrs by sulforhodamine B assay relative to control
Malme-3M = assay: Growth inhibition of human MALME-3M cells at 10^-5 M incubated for 48 hrs by sulforhodamine B assay relative to control
M14 = assay: Growth inhibition of human M14 cells at 10^-5 M incubated for 48 hrs by sulforhodamine B assay relative to control
MDA-MB-435 = assay: Growth inhibition of human MDA-MB-435 cells at 10^-5 M incubated for 48 hrs by sulforhodamine B assay relative to control
SK-MEL-28 = assay: Growth inhibition of human SK-MEL-28 cells at 10^-5 M incubated for 48 hrs by sulforhodamine B assay relative to control
SK-MEL-5 = assay: Growth inhibition of human SK-MEL-5 cells at 10^-5 M incubated for 48 hrs by sulforhodamine B assay relative to control
UACC-257 = assay: Growth inhibition of human UACC257 cells at 10^-5 M incubated for 48 hrs by sulforhodamine B assay relative to control
UACC-62 = assay: Growth inhibition of human UACC62 cells at 10^-5 M incubated for 48 hrs by sulforhodamine B assay relative to control
IGROV-1 = assay: Growth inhibition of human IGROV1 cells at 10^-5 M incubated for 48 hrs by sulforhodamine B assay relative to control
OVCAR-3 = assay: Growth inhibition of human OVCAR3 cells at 10^-5 M incubated for 48 hrs by sulforhodamine B assay relative to control
OVCAR-4 = assay: Growth inhibition of human OVCAR4 cells at 10^-5 M incubated for 48 hrs by sulforhodamine B assay relative to control
OVCAR-5 = assay: Growth inhibition of human OVCAR5 cells at 10^-5 M incubated for 48 hrs by sulforhodamine B assay relative to control
OVCAR-8 = assay: Growth inhibition of human OVCAR8 cells at 10^-5 M incubated for 48 hrs by sulforhodamine B assay relative to control
SK-OV-3 = assay: Growth inhibition of human SKOV3 cells at 10^-5 M incubated for 48 hrs by sulforhodamine B assay relative to control
ACHN = assay: Growth inhibition of human ACHN cells at 10^-5 M incubated for 48 hrs by sulforhodamine B assay relative to control
CAKI-1 = assay: Growth inhibition of human Caki1 cells at 10^-5 M incubated for 48 hrs by sulforhodamine B assay relative to control
RXF 393 = assay: Growth inhibition of human RXF393 cells at 10^-5 M incubated for 48 hrs by sulforhodamine B assay relative to control
UO-31 = assay: Growth inhibition of human UO31 cells at 10^-5 M incubated for 48 hrs by sulforhodamine B assay relative to control
MCF7 = assay: Growth inhibition of human MCF7 cells at 10^-5 M incubated for 48 hrs by sulforhodamine B assay relative to control
MDA-MB-231 = assay: Growth inhibition of human MDA-MB-231/ATCC cells at 10^-5 M incubated for 48 hrs by sulforhodamine B assay relative to control
Hs-578T = assay: Growth inhibition of human Hs 578T cells at 10^-5 M incubated for 48 hrs by sulforhodamine B assay relative to control
BT-549 = assay: Growth inhibition of human BT549 cells at 10^-5 M incubated for 48 hrs by sulforhodamine B assay relative to control
MDA-MB-468 = assay: Growth inhibition of human MDA-MB-468 cells at 10^-5 M incubated for 48 hrs by sulforhodamine B assay relative to control
Candida albicans = assay: Antifungal activity against Candida albicans at 100 ug/ml by disc diffusion method; conditions: read-out: IZ
Aspergillus fumigatus [1] = assay: Antifungal activity against Aspergillus fumigatus at 100 ug/ml by disc diffusion method; conditions: read-out: IZ
Aspergillus fumigatus [2] = assay: Antifungal activity against Aspergillus fumigatus after 24 hrs by serial dilution method

Cc1ccc2nc(Cl)c(Cn3nnnc3Cc3ccccc3)cc2c1
growth inhibition (GI) (K562): Active
growth inhibition (GI) (MOLT-4): Active
growth inhibition (GI) (SR): Active
growth inhibition (GI) (A549): Active
growth inhibition (GI) (NCI-H226): Active
growth inhibition (GI) (NCI-H23): Active
growth inhibition (GI) (NCI-H460): Active
growth inhibition (GI) (NCI-H522): Active
growth inhibition (GI) (COLO 205): Active
growth inhibition (GI) (HCC 2998): Active
growth inhibition (GI) (HCT-116): Active
growth inhibition (GI) (HT-29): Active
growth inhibition (GI) (KM12): Active
growth inhibition (GI) (SW-620): Active
growth inhibition (GI) (SF-268): Active
growth inhibition (GI) (SF-295): Active
growth inhibition (GI) (SF-539): Active
growth inhibition (GI) (SNB-19): Active
growth inhibition (GI) (U-251): Active
growth inhibition (GI) (Malme-3M): Active
growth inhibition (GI) (M14): Active
growth inhibition (GI) (MDA-MB-435): Active
growth inhibition (GI) (SK-MEL-28): Active
growth inhibition (GI) (SK-MEL-5): Active
growth inhibition (GI) (UACC-257): Active
growth inhibition (GI) (UACC-62): Active
growth inhibition (GI) (IGROV-1): Active
growth inhibition (GI) (OVCAR-3): Active
growth inhibition (GI) (OVCAR-4): Active
growth inhibition (GI) (OVCAR-5): Active
growth inhibition (GI) (OVCAR-8): Active
growth inhibition (GI) (SK-OV-3): Active
growth inhibition (GI) (ACHN): Active
growth inhibition (GI) (CAKI-1): Active
growth inhibition (GI) (RXF 393): Active
growth inhibition (GI) (UO-31): Active
growth inhibition (GI) (MCF7): Active
growth inhibition (GI) (MDA-MB-231): Active
growth inhibition (GI) (Hs-578T): Active
growth inhibition (GI) (BT-549): Active
growth inhibition (GI) (MDA-MB-468): Active
zone of inhibition at 100 µg/mL (Candida albicans): 10 mm
zone of inhibition at 100 µg/mL (Aspergillus fumigatus [1]): 10 mm
MIC (Aspergillus fumigatus [2]): 25 mg/L (≈ 71.5 µM)

Clc1nc2ccccc2cc1Cn1nnc(CSc2ccccc2)n1
growth inhibition (GI) (K562): Active
growth inhibition (GI) (MOLT-4): Active
growth inhibition (GI) (SR): Active
growth inhibition (GI) (A549): Active
growth inhibition (GI) (NCI-H226): Active
growth inhibition (GI) (NCI-H23): Active
growth inhibition (GI) (NCI-H460): Active
growth inhibition (GI) (NCI-H522): Active
growth inhibition (GI) (COLO 205): Active
growth inhibition (GI) (HCC 2998): Active
growth inhibition (GI) (HCT-116): Active
growth inhibition (GI) (HT-29): Active
growth inhibition (GI) (KM12): Active
growth inhibition (GI) (SW-620): Active
growth inhibition (GI) (SF-268): Active
growth inhibition (GI) (SF-295): Active
growth inhibition (GI) (SF-539): Active
growth inhibition (GI) (SNB-19): Active
growth inhibition (GI) (U-251): Active
growth inhibition (GI) (Malme-3M): Active
growth inhibition (GI) (M14): Active
growth inhibition (GI) (MDA-MB-435): Active
growth inhibition (GI) (SK-MEL-28): Active
growth inhibition (GI) (SK-MEL-5): Active
growth inhibition (GI) (UACC-257): Active
growth inhibition (GI) (UACC-62): Active
growth inhibition (GI) (IGROV-1): Active
growth inhibition (GI) (OVCAR-3): Active
growth inhibition (GI) (OVCAR-4): Active
growth inhibition (GI) (OVCAR-5): Active
growth inhibition (GI) (OVCAR-8): Active
growth inhibition (GI) (SK-OV-3): Active
growth inhibition (GI) (ACHN): Active
growth inhibition (GI) (CAKI-1): Active
growth inhibition (GI) (RXF 393): Active
growth inhibition (GI) (UO-31): Active
growth inhibition (GI) (MCF7): Active
growth inhibition (GI) (MDA-MB-231): Active
growth inhibition (GI) (Hs-578T): Active
growth inhibition (GI) (BT-549): Active
growth inhibition (GI) (MDA-MB-468): Active
zone of inhibition at 100 µg/mL (Candida albicans): 10 mm
zone of inhibition at 100 µg/mL (Aspergillus fumigatus [1]): 15 mm
MIC (Aspergillus fumigatus [2]): 25 mg/L (≈ 68 µM)
